{
  "source": "patent US20260216292A1",
  "about": "“CXCL8 INHIBITORS FOR USE IN THE TREATMENT OF OCULAR MUCOUS MEMBRANE PEMPHIGOID AND/OR ORAL MUCOUS MEMBRANE PEMPHIGOID” (DOMPE' FARMACEUTICI SPA, priority 2023, published 2026)",
  "type_in_all_cases": "in vivo, C57Bl/6 (B6) mice",
  "key": {"[1]": {"test_system": "experimental MMP mouse model (anti-mLAMα3 IgG induced)", "assay": "Severity of oral lesions by endoscopy (oral score) in experimental MMP", "conditions": "day 28; vs vehicle; DF2156A eyedrops, MP i.p.; maximum score 4"}, "[2]": {"test_system": "experimental MMP mouse model (anti-mLAMα3 IgG induced)", "assay": "Conjunctival lesions by lesional histopathology (H&E) of palpebral conjunctiva in antibody transfer-induced experimental MMP", "conditions": "for overall therapeutic effect in diseased mice: administered topically twice a day, days 12 and 28; for subepithelial inflammatory infiltrate, semi-quantification of H&E stained palpebral conjunctival biopsies / palpebral conjunctival split formation (conjunctiva score): vs vehicle; for palpebral conjunctival split formation (conjunctiva score): score 0-4", "source_text": "(§1) Adult C57Bl/6 (B6) mice (male and female) aged at least 6 weeks old were used. Animals were maintained on a 12-h light-dark cycle at the animal facility of the University of Lübeck. Mice were held under SPF conditions and fed acidified drinking water and standard chow ad libitum. Protocols were approved by the Animal Rights Commission of the Ministry of Agriculture and Environment, Schleswig-Holstein.\nFor production of anti-mLAMα3 IgG, New Zealand White rabbits were immunized subcutaneously with […] of an equimolar mixture of the 2 purified recombinant proteins (aa1656-1985 and aa2756-3330 of murine Laminin alpha3 chain, produced in E. coli as disclosed by Heppe, E. N., et al., J Invest Dermatol, 2017, 137, 1709-1718) suspended in complete Freund's adjuvant. The animals were boosted twice with the same protein preparation in incomplete Freund's adjuvant. Immune sera were obtained at regular intervals and characterized by IF microscopy on cryosections of murine skin. IgG from rabbits immunized with recombinant fragments of murine mLAMα3 and from non-immunized rabbits was purified by affinity chromatography using protein G sepharose affinity chromatography (Amersham Biosciences, Heidelberg, Germany). Reactivity of IgG fractions was analyzed by IF microscopy on murine skin (Sitaru et al., J Immunol 2006, 177: 3461-8). In addition, each batch of anti-mLAMα3 IgG was characterized in vivo regarding its capability to induce experimental MMP in C57Bl/6 (B6) mice (WP1.1). From this experiment, the amount of antibodies that leads to moderate experimental MMP was determined; i.e. the amount needed to induce disease development with moderate involvement of the conjunctiva (i.e. score of 1-3 in a maximum of 50% of the animals on day 12) in the model of antibody transfer-induced MMP. For this purpose, the intensity of the separation of the conjunctiva is determined histologically. The body surface area affected should be between 3-8% at the concentration used. The conjunctiva score was set histologically post-mortem and was in a range of 0-4, depending on the intensity of the separation of the conjunctiva. The amount needed was determined to be 5 mg/injection of anti-mLAMα3 IgG.\nTo test DF2156A at 0.5% and reparixin at 0.5% effects on the severity of conjunctival involvement in experimental MMP, the disease was induced by repetitive subcutaneous (s.c.) injections of anti-mLAMα3 IgG (5 mg/mouse) on alternating days (0, 2, ( . . . ) and 10) into adult B6 mice, which were treated throughout the entire experiment twice a day via eyedrops. Three eyedrops per eye were given twice daily. Mice treated with solvent via eyedrops or methylprednisolone (MP) via i.p. injections were used as treatment controls. Mice s.c. injected with IgG isolated from normal rabbit serum (NR IgG) served as negative control.\nThe primary endpoint of this experiment was the extent of conjunctival lesions as determined by lesional histopathology (H&E stain) on day 12 and 28 following an established scoring system (Heppe, E. N., et al., J Invest Dermatol, 2017, 137, 1709-1718). In detail, biopsies from the palpebral conjunctiva were taken on day 12 and day 28 and paraffine embedded. 4.5 μm thick sections from 3 different depths of the biopsies were cut in triplicate and H&E stained for further quantification. Among the H&E stained histologies those with a palpebral conjunctival-epithelium with more than 1000 μm were used for quantification. For this score the length of the split formation (split=epithelia separation from the underlying dermal structures) is measured. The split length is categorized to a score of 0-4 with no split=0, less than 100 μm=1, less than 200 μm=2, less than 300 μm=3, more or equal 300 μm=4. Splits that occurred at the end of the tissue were excluded, because they were most likely to be of artificial nature due to the cutting. The longest split out of 9 possible sections is decisive for the final score. […]"}, "[3]": {"test_system": "experimental MMP mouse model (anti-mLAMα3 IgG induced)", "assay": "Macroscopic affected eye area in experimental MMP", "conditions": "DF2156A topical eyedrops, MP i.p. once daily", "source_text": "as §1\nFor production of anti-mLAMα3 IgG, New Zealand White rabbits were immunized subcutaneously with […] of an equimolar mixture of the 2 purified recombinant proteins (aa1656-1985 and aa2756-3330 of murine Laminin alpha3 chain, produced in E. coli as disclosed by Heppe, E. N., et al., J Invest Dermatol, 2017, 137, 1709-1718) suspended in complete Freund's adjuvant. […] Reactivity of IgG fractions was analyzed by IF microscopy on murine skin (Sitaru et al., J Immunol 2006, 177: 3461-8). […] From this experiment, the amount of antibodies that leads to moderate experimental MMP was determined; i.e. the amount needed to induce disease development with moderate involvement of the conjunctiva (i.e. score of 1-3 in a maximum of 50% of the animals on day 12) in the model of antibody transfer-induced MMP. For this purpose, the intensity of the separation of the conjunctiva is determined histologically. […] The amount needed was determined to be 5 mg/injection of anti-mLAMα3 IgG. […]"}, "[4]": {"conditions": "day 12, 0.5% eyedrops twice daily"}, "[5]": {"conditions": "day 28, 0.5% eyedrops twice daily"}, "[6]": {"conditions": "day 28, 0.5% eyedrops twice daily, listed as Reparixin"}},
  "note": "“Also recorded” adds a separate entry of the source.",
  "data": [
    {"smiles": "C[C@@H](C(=O)NS(C)(=O)=O)c1ccc(OS(=O)(=O)C(F)(F)F)cc1", "note": "[DF2156A, R(−)-2-[(4-trifluoromethanesulfonyloxy)phenyl]-N-methanesulfonyl propionamide]", "values": [
      {"measurement": "severity of oral lesions (oral score)", "setting": "[1]", "result": "decreased"},
      {"measurement": "overall therapeutic effect in diseased mice", "setting": "[2]", "result": "overall benefit"},
      {"measurement": "subepithelial inflammatory infiltrate, semi-quantification of H&E stained palpebral conjunctival biopsies", "setting": "[2]; [4]", "result": "reduced"},
      {"measurement": "palpebral conjunctival split formation (conjunctiva score)", "setting": "[2]; day 12, DF2156A 0.5% or reparixin 0.5% eyedrops twice daily", "result": "significant reduction; also recorded: improvement"},
      {"measurement": "subepithelial inflammatory infiltrate, semi-quantification of H&E stained palpebral conjunctival biopsies", "setting": "[2]; [5]", "result": "decreased; also recorded: improvement"},
      {"measurement": "palpebral conjunctival split formation (conjunctiva score)", "setting": "[2]; [5]", "result": "significant reduction; also recorded: improvement"},
      {"measurement": "extent of macroscopic affected eye area", "setting": "[3]; day 12", "result": "reduction"},
      {"measurement": "extent of affected eye area (AUC over 28 days)", "setting": "[3]; day 28", "result": "reduction"}
    ]},
    {"smiles": "CC(C)Cc1ccc([C@@H](C)C(=O)NS(C)(=O)=O)cc1", "note": "[reparixin, R-(−)-2-(4-isobutylphenyl)propionyl methansulfonamide]", "values": [
      {"measurement": "overall therapeutic effect in diseased mice", "setting": "[2]", "result": "overall benefit; also recorded: slower onset of the therapeutic effect"},
      {"measurement": "subepithelial inflammatory infiltrate, semi-quantification of H&E stained palpebral conjunctival biopsies", "setting": "[2]; [4]", "result": "reduced"},
      {"measurement": "subepithelial inflammatory infiltrate, semi-quantification of H&E stained palpebral conjunctival biopsies", "setting": "[2]; [5]", "result": "significantly decreased"},
      {"measurement": "subepithelial inflammatory infiltrate, semi-quantification of H&E stained palpebral conjunctival biopsies", "setting": "[2]; [6]", "result": "reduced"},
      {"measurement": "palpebral conjunctival split formation (conjunctiva score)", "setting": "[2]; [5]", "result": "significant reduction"},
      {"measurement": "palpebral conjunctival split formation (conjunctiva score)", "setting": "[2]; [6]", "result": "reduced"}
    ]}
  ]
}
